Measurements taken from US6479673B1, “Antiretroviral enantiomeric nucleotide analogs” (Institute of Organic Chemistry and Biochemistry of the …, priority 1992, dated 2002).
In brackets after ≈: the same amount, converted by molar mass.

Assays:
HIV-1 = HIV-1 induced cytopathicity in MT-4 cells; type: cell-based, human immunodeficiency virus type 1; conditions: MT-4 cells; concentration inhibiting HIV-induced cytopathicity by 50%
Description: (§1) The activity of the compounds against HIV-1 and HIV-2 induced cytopathicity was examined in human lymphocyte MT-4 cells. […] The infected cell cultures were then incubated at 37° C. for 5 days in a humidified CO2-controlled incubator. Then, the cytopathicity of the virus was examined by determination of MT-4 cell viability by trypan blue dye staining.

C3H/3T3 cells = assay: Microscopic alteration of C3H/3T3 cell culture morphology; type: cell-based, murine; conditions: concentration that results in a microscopic alteration of C3H/3T3 cell culture morphology
MT-4 cells = assay: MT-4 cell viability (cytotoxicity); type: cell-based, human; conditions: concentration reducing MT-4 cell viability by 50%
Description: The activity of the compounds against HIV-1 and HIV-2 induced cytopathicity was examined in human lymphocyte MT-4 cells. […]. The infected cell cultures were then incubated at 37° C. for 5 days in a humidified CO2-controlled incubator. Then, the cytopathicity of the virus was examined by determination of MT-4 cell viability by trypan blue dye staining. The results are summarized in Table 1 in comparison with the data on the prototype compounds.

[1] = tested on: Moloney murine sarcoma virus (MSV); assay: MSV-induced transformation of C3H/3T3 cells; type: cell-based; conditions: concentration inhibiting MSV-induced cell transformation by 50%
Description: The cells were seeded in 1-ml-wells of a 48-well microtiter plate and exposed to 80 PFU (plaque forming units) for 60-90 minutes. Then, the virus was removed and culture medium containing appropriate concentrations of the test compounds were added (1 ml per well). At day 6 post infection, MSV-induced transformation of the cell culture was examined microscopically.

[2] = tested on: Moloney murine sarcoma virus (MSV); assay: MSV infection in newborn NMRI mice, intraperitoneal administration; type: in vivo
Description: Two gram newborn NMRI mice were injected intramuscularly in the left hind leg with 50 μl of 250-fold diluted stock preparation of Moloney murine sarcoma virus. […] Another group of mice (20 animals) was administered RPMI-1640 medium as placebo. All compounds were solubilized in RPMI-1640 medium. The mice were observed daily for 20 days and the day of tumor initiation and the day of animal death was recorded for each animal. Statistical analyses were performed by calculating the standard deviation.

HIV-2 = HIV-2 induced cytopathicity in MT-4 cells; type: cell-based, human immunodeficiency virus type 2; conditions: MT-4 cells; concentration inhibiting HIV-induced cytopathicity by 50%
Description: as §1

retrovirus replication = assay: Anti-retrovirus activity in vitro (conclusions on HIV and MSV tests); type: cell-based
[3] = 10 mg/kg single dose i.p., NMRI mice
[4] = 25 mg/kg single dose i.p., NMRI mice
[5] = 50 mg/kg single dose i.p., NMRI mice
[6] = 20 mg/kg single dose i.p., NMRI mice

SMILES | EC50 HIV-1 (HIV-1) [µg/mL] | MIC (C3H/3T3 cells) [µg/mL] | CC50 (MT-4 cells) [µg/mL] | EC50 MSV [1] [µg/mL] | percentage of MSV-infected mice still alive at day 20 post infection ([2]; 10 mg/kg single dose i.p.) | Mean day of tumor initiation [2, 3] [days] | Mean day of tumor initiation [2, 4] [days] | percentage of MSV-infected mice still alive at day 20 post infection ([2]; 50 mg/kg single dose i.p.) | percentage of MSV-infected mice without tumor at day 20 post infection ([2]; 50 mg/kg single dose i.p.) | Mean day of tumor initiation [2, 5] [days] | EC50 HIV-2 (HIV-2) [µg/mL] | Mean day of tumor initiation [2, 6] [days] | further results
Nc1nc(N)c2ncn(C[C@@H](CF)OCP(=O)(O)O)c2n1 [(S)-FPMPDAP] | 4.8 (≈ 15 µM) | >100 | >100 | 1.7 (≈ 5.31 µM) | (33%) | 8.5 ± 2.6 | 8.3 ± 1.8 | (67%) | (17%) | 11.0 ± 2.1 | 3.3 (≈ 10.3 µM) |  | 
C[C@@H](Cn1cnc2c(N)nc(N)nc21)OCP(=O)(O)O [(S)-PMPDAP, 9-(S)-(2-Phosphonomethoxypropyl)-2.6-Diaminopurine] | 2.0 (≈ 6.62 µM) | >100 | >100 | 2.9 (≈ 9.6 µM) |  |  |  |  |  |  | 4.0 (≈ 13.2 µM) |  | 
Nc1ncnc2c1ncn2C[C@H](CF)OCP(=O)(O)O [(R)-FPMPA, reference compound] | 83 (≈ 272 µM) | >100 | >100 | >100 |  |  |  |  |  | 4.7 ± 0.67 | 54 (≈ 177 µM) | 4.3 ± 0.48 | 
C[C@@H](Cn1cnc2c(N)ncnc21)OCP(=O)(O)O [(S)-PMPA, 9-(S)-(2-Phosphonomethoxypropyl)adenine] | 78 (≈ 272 µM) | >100 | >100 | 120 (≈ 418 µM) |  | 4.7 ± 0.95 |  |  |  | 5.8 ± 0.63 | 63 (≈ 219 µM) | 4.5 ± 0.71 | antiretroviral activity in vitro (in words) (retrovirus replication): devoid of marked antiretroviral activity; antiretroviral activity in vivo (in words) ([2]; dose of 50 mg/kg i.p.): no marked antiretroviral activity in vivo
C[C@H](Cn1cnc2c(N)ncnc21)OCP(=O)(O)O [(R)-PMPA, 9-(R)-(2-Phosphonomethoxypropyl)adenine] | 1.7 (≈ 5.92 µM) | >100 | >100 | 0.99 (≈ 3.45 µM) | (85%) | 12.9 ± 2.2 |  | (100%) | (100%) | >20 |  | 13.5 ± 3.5 | concentration markedly inhibitory to retrovirus replication (retrovirus replication; in vitro): 1 to 2 µg/mL; Mean day of tumor initiation ([2]; 2 mg/kg single dose i.p., NMRI mice): 5.3 ± 1.1 days; percentage of MSV-infected mice still alive at day 20 post infection ([2]; 5 mg/kg single dose i.p.): (20%); percentage of MSV-infected mice without tumor at day 20 post infection ([2]; 5 mg/kg single dose i.p.): (10%); Mean day of tumor initiation ([2]; 5 mg/kg single dose i.p., NMRI mice): 7.11 ± 1.5 days; percentage of MSV-infected mice without tumor at day 20 post infection ([2]; 10 mg/kg single dose i.p.): (75%); percentage of MSV-infected mice still alive at day 20 post infection ([2]; 20 mg/kg single dose i.p.): (100%); percentage of MSV-infected mice without tumor at day 20 post infection ([2]; 20 mg/kg single dose i.p.): (80%); Mean day of animal death [2, 6]: >20 days; protection against MSV-induced tumor development (in words) ([2]; single dose of 50 mg/kg i.p.): full protection
Nc1nc(N)c2ncn(C[C@H](CF)OCP(=O)(O)O)c2n1 [(R)-FPMPDAP, reference compound] | 1.4 (≈ 4.37 µM) | >100 | >100 | 1.7 (≈ 5.31 µM) |  | 5.6 ± 1.0 | 7.7 ± 1.9 | (10%) |  | 7.75 ± 1.3 | 1.5 (≈ 4.68 µM) |  | percentage of MSV-infected mice still alive at day 20 post infection ([2]; 25 mg/kg single dose i.p.): (15%)
